# Laboratory results reported in patent US10766902B2, “Wee-1 inhibiting pyrazolopyrimidinone compounds” (ALMAC DISCOVERY LIMITED, priority 2016, dated 2020).
# pIC50: −log10 of the molar value. Where two headings read alike, the source gives them in different places.
# Legend:
# Format in all cases: biochemical
# Wee-1 kinase = Wee-1 kinase (Homo sapiens (Human), UniProt P30291); test: Measurement of Wee-1 kinase activity (ADP-Glo luminescence); details: for IC50: data obtained as described in the experimental section of the current invention, read-out: Wee-1/nM
# Sequence of Wee-1 kinase (P30291 whole entry): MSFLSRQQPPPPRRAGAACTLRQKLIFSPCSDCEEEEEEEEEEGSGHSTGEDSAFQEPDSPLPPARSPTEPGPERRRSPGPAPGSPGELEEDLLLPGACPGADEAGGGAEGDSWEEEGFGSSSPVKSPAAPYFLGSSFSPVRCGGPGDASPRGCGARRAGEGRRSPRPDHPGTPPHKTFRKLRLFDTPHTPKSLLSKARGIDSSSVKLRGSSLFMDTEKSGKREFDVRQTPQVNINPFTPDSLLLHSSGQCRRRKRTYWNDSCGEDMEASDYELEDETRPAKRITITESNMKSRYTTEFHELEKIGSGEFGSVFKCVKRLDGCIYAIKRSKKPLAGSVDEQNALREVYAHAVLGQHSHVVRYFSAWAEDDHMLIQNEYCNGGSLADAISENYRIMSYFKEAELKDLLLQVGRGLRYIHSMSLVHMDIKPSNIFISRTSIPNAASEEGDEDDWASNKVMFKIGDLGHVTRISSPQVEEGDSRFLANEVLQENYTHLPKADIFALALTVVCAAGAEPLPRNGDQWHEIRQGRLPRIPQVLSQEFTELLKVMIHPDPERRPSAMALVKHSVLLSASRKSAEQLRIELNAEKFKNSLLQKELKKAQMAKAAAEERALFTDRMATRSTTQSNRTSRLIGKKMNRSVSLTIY
# Procedure, shortened: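 Activated Wee-1 preincubated 30 min at RT with compound in Tris/MgCl2 buffer with BSA and DTT, then reacted 1 h at RT with poly(Lys,Tyr 4:1) (2.0 μg/mL) and 30 μM ATP as added aliquot. ADP formed measured by ADP-Glo luminescence; IC50 by non-linear regression of % inhibition.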
# AMPK A1/B1/G1 = AMPK A1/B1/G1 (Homo sapiens (Human), UniProt Q13131); test: SelectScreen Kinase Profiling: AMPK A1/B1/G1; details: tested at 300-350 nM
# Sequence of AMPK A1/B1/G1 (Q13131 whole entry): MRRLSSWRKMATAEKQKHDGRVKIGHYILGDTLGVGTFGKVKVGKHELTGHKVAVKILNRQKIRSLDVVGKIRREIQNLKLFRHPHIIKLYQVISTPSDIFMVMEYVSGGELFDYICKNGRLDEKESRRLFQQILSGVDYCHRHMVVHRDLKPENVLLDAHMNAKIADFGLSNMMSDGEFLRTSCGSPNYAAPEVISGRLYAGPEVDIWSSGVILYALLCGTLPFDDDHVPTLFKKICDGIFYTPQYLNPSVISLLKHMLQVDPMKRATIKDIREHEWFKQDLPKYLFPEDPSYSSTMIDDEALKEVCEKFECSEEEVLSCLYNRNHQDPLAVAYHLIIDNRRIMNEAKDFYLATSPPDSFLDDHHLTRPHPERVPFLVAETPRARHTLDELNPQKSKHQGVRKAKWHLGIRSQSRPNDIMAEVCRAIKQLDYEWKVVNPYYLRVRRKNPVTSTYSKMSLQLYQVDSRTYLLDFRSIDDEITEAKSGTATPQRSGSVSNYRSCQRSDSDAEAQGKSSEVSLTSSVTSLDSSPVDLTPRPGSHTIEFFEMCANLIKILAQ
# Sequence of AMPK A1/B1/G1 (Q9Y478 whole entry partner): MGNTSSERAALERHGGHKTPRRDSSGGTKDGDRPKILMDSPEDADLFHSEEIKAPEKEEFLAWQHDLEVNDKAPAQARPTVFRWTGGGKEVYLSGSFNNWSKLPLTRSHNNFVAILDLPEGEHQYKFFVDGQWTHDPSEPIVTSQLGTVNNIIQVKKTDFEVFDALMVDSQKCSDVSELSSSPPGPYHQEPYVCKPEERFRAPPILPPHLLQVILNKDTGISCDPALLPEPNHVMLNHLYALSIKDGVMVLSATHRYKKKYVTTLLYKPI
# Sequence of AMPK A1/B1/G1 (P54619 whole entry partner): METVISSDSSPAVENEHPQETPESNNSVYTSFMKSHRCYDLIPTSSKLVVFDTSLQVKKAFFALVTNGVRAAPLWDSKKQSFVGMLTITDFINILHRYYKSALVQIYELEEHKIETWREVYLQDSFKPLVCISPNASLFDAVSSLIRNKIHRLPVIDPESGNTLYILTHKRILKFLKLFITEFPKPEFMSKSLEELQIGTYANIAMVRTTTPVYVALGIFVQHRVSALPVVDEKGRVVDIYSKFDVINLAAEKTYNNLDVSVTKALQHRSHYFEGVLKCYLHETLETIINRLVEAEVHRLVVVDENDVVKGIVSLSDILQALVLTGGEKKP
# Source text: (§1) Table 4 below highlights the selectivity of a representative compound of the invention, Example 5, against a panel of 50 kinases (assessed using the Invitrogen SelectScreen® Kinase Profiling Service).
# KDR (VEGFR2) = KDR (VEGFR2) (Homo sapiens (Human), UniProt P35968); test: SelectScreen Kinase Profiling: KDR (VEGFR2); details: tested at 300-350 nM
# Sequence of KDR (VEGFR2) (P35968 20-1356): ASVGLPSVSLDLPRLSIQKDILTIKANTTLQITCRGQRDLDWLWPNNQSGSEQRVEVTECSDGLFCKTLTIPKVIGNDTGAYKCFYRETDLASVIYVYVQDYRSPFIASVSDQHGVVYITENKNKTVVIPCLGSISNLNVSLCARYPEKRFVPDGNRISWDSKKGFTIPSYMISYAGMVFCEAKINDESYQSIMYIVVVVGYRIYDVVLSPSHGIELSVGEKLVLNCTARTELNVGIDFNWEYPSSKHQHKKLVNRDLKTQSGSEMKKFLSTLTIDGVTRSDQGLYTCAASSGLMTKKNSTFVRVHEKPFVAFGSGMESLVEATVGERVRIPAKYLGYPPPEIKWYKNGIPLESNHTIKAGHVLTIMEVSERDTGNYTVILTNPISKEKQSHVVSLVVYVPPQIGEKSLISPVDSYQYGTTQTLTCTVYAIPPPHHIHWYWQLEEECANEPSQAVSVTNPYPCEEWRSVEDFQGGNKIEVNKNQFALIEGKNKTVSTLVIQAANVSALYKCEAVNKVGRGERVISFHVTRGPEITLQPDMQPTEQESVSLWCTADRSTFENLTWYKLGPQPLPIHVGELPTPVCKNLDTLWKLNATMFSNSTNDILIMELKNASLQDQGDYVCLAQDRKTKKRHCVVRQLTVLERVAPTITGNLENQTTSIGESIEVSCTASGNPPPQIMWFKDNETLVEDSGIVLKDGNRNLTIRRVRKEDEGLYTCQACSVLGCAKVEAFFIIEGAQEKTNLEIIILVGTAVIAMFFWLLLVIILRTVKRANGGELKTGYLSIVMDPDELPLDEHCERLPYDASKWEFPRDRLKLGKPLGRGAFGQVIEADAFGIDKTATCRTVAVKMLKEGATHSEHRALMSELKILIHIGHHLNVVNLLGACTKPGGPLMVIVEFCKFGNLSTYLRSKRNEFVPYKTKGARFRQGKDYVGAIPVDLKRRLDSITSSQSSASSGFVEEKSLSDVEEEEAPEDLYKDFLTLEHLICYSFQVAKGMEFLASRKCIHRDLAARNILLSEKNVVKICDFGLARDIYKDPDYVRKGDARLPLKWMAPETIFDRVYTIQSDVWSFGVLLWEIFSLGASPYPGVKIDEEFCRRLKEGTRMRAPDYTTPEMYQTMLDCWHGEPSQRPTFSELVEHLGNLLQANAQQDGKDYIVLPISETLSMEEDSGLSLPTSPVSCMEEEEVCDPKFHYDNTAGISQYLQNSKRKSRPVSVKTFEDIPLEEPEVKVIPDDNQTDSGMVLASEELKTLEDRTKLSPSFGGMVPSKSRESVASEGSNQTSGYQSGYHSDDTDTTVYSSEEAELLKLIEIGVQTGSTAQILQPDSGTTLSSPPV
# Source text: as §1
# MAP4K4 (HGK) = MAP4K4 (HGK) (Homo sapiens (Human), UniProt O95819); test: SelectScreen Kinase Profiling: MAP4K4 (HGK); details: tested at 300-350 nM
# Sequence of MAP4K4 (HGK) (O95819 whole entry): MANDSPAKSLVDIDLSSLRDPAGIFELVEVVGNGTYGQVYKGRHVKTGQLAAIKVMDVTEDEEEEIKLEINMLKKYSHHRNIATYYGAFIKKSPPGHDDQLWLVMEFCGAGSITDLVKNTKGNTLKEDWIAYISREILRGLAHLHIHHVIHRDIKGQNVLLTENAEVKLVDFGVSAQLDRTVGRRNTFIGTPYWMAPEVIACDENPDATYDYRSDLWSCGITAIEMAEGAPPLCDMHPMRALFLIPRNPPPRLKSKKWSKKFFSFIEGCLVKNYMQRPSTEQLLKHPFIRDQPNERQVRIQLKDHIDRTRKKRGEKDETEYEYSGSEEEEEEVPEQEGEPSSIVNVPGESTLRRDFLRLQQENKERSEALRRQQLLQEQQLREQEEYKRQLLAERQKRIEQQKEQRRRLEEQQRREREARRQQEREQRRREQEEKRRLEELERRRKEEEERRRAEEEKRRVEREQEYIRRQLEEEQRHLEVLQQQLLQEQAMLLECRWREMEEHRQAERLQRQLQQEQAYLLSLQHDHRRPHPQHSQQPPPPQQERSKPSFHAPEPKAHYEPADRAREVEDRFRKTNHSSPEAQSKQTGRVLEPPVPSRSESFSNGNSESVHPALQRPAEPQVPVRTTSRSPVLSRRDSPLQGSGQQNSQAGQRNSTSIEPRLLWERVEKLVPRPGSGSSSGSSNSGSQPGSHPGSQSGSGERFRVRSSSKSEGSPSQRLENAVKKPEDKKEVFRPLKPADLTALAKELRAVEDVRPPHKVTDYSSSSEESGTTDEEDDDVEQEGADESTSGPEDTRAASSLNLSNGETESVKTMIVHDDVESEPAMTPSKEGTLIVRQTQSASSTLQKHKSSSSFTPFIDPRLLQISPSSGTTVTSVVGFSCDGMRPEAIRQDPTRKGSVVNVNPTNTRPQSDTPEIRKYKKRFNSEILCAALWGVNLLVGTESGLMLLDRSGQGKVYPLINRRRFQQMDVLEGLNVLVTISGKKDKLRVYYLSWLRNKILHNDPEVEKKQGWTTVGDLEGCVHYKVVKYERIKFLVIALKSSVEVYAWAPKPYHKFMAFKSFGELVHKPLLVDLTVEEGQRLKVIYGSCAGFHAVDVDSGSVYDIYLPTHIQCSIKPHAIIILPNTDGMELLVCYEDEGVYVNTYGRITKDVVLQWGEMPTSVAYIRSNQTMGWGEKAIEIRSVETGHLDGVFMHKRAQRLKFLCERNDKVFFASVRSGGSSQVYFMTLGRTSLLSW
# Source text: as §1
# PAK4 = PAK4 (Homo sapiens (Human), UniProt O96013); test: SelectScreen Kinase Profiling: PAK4; details: tested at 300-350 nM
# Sequence of PAK4 (O96013 whole entry): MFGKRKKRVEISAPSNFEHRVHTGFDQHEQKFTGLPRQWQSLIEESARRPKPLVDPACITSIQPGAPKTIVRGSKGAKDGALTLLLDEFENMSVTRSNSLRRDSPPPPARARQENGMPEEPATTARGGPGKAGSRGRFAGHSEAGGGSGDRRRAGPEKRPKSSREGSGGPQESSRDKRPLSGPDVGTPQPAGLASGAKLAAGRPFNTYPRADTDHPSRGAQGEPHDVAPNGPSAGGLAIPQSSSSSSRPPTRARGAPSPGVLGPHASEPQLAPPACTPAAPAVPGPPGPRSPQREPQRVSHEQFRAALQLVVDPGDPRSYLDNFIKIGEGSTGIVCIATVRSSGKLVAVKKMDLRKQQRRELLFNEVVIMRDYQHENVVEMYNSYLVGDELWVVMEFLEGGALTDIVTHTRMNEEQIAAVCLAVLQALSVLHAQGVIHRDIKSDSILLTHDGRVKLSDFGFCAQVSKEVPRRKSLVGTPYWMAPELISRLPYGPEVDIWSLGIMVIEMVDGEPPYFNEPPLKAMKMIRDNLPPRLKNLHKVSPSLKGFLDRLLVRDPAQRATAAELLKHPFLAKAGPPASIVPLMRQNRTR
# Source text: as §1
structure (smiles),measurement,setting,value
"C=CCn1c(=O)c2cnc(Nc3ccc(N4CCN(C)CC4)cc3)nc2n1-c1cccc(N=S(C)(C)=O)n1 [Example 5, 1-(6-{[Dimethyl(oxo)-λ^6-sulfanylidene]amino}pyridine-2-yl)-6-{[4-(4-methylpiperazin-1-yl)phenyl]amino}-2-(prop-2-en-1-yl)-1H,2H,3H-pyrazolo[3,4-d]pyrimidin-3-one]",IC50,Wee-1 kinase; Table 5,1.2 nM
same,IC50,Wee-1 kinase; Table 7,1.2 nM
same,pIC50,Wee-1 kinase; read-out: Wee1 IC50,8.92
same,inhibition of AMPK A1/B1/G1,AMPK A1/B1/G1,− (inhibition under 50% (tested at 300-350 nM))
same,inhibition of KDR (VEGFR2),KDR (VEGFR2),− (inhibition under 50% (tested at 300-350 nM))
same,inhibition of MAP4K4 (HGK),MAP4K4 (HGK),− (inhibition under 50% (tested at 300-350 nM))
same,inhibition of PAK4,PAK4,− (inhibition under 50% (tested at 300-350 nM))
